Patent US4217357A, “Inhibition of thromboxane synthetase with 3-(imidazol-1-ylalkyl)indoles” (Pfizer Inc., priority 1978, dated 1980)

Experiments:
Type in all cases: biochemical
thromboxane synthetase = molecular target: T1, thromboxane synthetase (Homo sapiens, UniProt P24557); assay: Thromboxane A2 (TxA2) synthetase in vitro enzyme assay; conditions: for IC50: indomethacin-pretreated human platelet microsomes, PGH2, 0° C., 2 min, 5 min pre-incubation, read-out: Concentration causing 50% inhibition of (1) thromboxane synthetase; for Ratio of (3) to (1): prostacyclin synthetase / thromboxane synthetase 50% inhibition concentrations
T1 construct: Indomethacin-pretreated human platelet microsomes; from tissue; host or cells: human platelet microsomes
T1 sequence (P24557 1-533): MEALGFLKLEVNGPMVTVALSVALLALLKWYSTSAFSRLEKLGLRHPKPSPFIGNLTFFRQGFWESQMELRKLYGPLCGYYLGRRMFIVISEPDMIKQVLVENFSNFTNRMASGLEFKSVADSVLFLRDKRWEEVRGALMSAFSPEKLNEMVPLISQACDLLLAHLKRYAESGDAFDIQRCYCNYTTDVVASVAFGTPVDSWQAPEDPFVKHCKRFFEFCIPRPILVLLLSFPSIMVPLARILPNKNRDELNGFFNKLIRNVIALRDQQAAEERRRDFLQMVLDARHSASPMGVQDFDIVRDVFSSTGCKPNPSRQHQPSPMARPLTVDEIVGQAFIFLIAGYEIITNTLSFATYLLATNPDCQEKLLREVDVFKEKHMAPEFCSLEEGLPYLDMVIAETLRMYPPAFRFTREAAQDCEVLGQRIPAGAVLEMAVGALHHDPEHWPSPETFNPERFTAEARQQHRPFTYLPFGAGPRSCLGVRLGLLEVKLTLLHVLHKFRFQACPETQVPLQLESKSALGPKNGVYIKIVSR
Protocol: Indomethacin-pretreated human platelet microsomes (Science, 1976, 193, 163) are incubated with PGH2 (produced as described in test No. 1) at 0° C. for a period of two minutes, and aliquots of the reaction mixture are then superfused over two rabbit aorta spirals which are separated by a delay coil (2 min.). The latter is required in order to allow for the selective decay of the more unstable thromboxane A2 (Proc. Nat. Acad. Sci., 1975, 72, 2994), thereby enabling separate measurement of the increased isometric tension due to the TxA2 formed and the PGH2 remaining to take place. The test compound is then pre-incubated with the enzyme for a period of five minutes, and its ability to inhibit the thromboxane synthetase enzyme is measured as its reduction of the TxA2 component of the isometric tension.

prostacyclin synthetase = molecular target: T2, prostacyclin synthetase (Sus scrofa, UniProt A0A5G2QT35); assay: Prostacyclin (PGI2) synthetase in vitro enzyme assay; conditions: pig aorta microsomes, PGH2, 22° C., 30 seconds; 5 min pre-incubation; read-out: Concentration causing 50% inhibition of (3) prostacyclin synthetase
T2 construct: Pig aorta microsomes; from tissue; host or cells: pig aorta microsomes
T2 sequence (A0A5G2QT35 1-497): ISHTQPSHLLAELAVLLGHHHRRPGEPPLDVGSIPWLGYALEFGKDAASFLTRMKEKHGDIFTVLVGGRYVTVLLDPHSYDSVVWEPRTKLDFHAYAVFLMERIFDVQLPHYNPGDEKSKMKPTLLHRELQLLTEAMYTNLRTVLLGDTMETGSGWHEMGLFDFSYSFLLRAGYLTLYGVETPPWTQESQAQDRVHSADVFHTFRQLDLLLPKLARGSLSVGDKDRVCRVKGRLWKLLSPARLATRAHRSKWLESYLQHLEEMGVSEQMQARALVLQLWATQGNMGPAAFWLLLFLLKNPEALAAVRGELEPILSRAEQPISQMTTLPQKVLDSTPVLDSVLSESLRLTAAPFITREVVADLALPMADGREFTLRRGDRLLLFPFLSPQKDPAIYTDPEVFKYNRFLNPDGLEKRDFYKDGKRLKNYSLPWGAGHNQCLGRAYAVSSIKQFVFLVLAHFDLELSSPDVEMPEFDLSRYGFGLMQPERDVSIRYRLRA

cyclo-oxygenase = molecular target: T3, cyclo-oxygenase (Ovis aries, UniProt P05979); assay: Cyclo-oxygenase in vitro enzyme assay; conditions: ram seminal vesicle microsomes, arachidonic acid 100 μM, 22° C., 1 min; 5 min pre-incubation; read-out: Concentration causing 50% inhibition of (2) cyclo-oxygenase
T3 construct: Ram seminal vesicle microsomes; from tissue; host or cells: ram seminal vesicle microsomes
T3 sequence (P05979 25-600): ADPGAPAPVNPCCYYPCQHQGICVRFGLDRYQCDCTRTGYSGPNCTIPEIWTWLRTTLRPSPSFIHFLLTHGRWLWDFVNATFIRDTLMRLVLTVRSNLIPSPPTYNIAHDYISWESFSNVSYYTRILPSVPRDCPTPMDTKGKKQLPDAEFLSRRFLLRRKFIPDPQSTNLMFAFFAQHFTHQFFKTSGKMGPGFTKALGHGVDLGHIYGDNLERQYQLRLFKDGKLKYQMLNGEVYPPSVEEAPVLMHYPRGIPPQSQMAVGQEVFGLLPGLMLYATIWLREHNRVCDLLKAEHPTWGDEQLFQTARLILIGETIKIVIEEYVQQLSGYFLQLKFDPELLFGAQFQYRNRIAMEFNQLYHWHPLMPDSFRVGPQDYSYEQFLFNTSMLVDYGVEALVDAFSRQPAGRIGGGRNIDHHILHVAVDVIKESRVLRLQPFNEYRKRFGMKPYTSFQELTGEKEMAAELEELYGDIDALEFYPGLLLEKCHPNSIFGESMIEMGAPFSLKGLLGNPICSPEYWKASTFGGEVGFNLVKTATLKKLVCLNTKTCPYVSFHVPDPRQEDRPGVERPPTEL
Protocol: The effect of the compounds of the formula (I) on the thromboxane synthetase enzyme, and the prostacyclin synthetase and cyclo-oxygenase enzymes has been measured by the following in vitro enzyme assay tests:
Ram seminal vesicle microsomes (Biochemistry, 1971, 10, 2372) are incubated with arachidonic acid (100 μM) at 22° C. for a period of one minute so as to produce PGH2, and aliquots of this reaction mixture are then injected into a stream of Krebs-bicarbonate at 37° C. [containing a mixture of antagonists (Nature, […], 218, 1135) and indomethacin (Brit. J. Pharmacol., 1972, 45, 451)] which is superfusing a spirally-cut rabbit aorta strip (Nature, 1969, 223, 29). The ability of a compound to inhibit the enzyme is measured by comparing the increases in isometric tension produced by PGH2 in the absence of the test compound and again, following pre-incubation of the enzyme with the test compound for a period of five minutes.

| Structure (SMILES) | IC50 (thromboxane synthetase) [nM] | Ratio of (3) to (1) (thromboxane synthetase) | IC50 (prostacyclin synthetase) [nM] | IC50 (cyclo-oxygenase) [nM] |
| --- | --- | --- | --- | --- |
| COc1ccc(C(=O)n2cc(Cn3ccnc3)c3ccccc32)cc1 [XLIII, 3-(imidazol-1-ylmethyl)-1-(p-methoxybenzoyl)indole] | 1.7 | > 60,000 | > 100000 | – |
| CC(C)(C)c1[nH]c2ccccc2c1Cn1ccnc1 [Example VI, 3-(imidazol-1-ylmethyl)-2-tert-butylindole] | – | – | – | > 100000 |
| Clc1ccccc1-c1[nH]c2ccccc2c1Cn1ccnc1 [Example XX, 2-(o-chlorophenyl)-3-(imidazol-1-ylmethyl)indole] | 3 | 13,000 | 40000 | > 100000 |
| c1ccc(-c2[nH]c3ccccc3c2Cn2ccnc2)cc1 [III, 3-(imidazol-1-ylmethyl)-2-phenylindole] | 10 | 1,200 | 12000 | > 100000 |
| c1ccc(Cc2[nH]c3ccccc3c2Cn2ccnc2)cc1 [XXII, 2-benzyl-3-(imidazol-1-ylmethyl)indole] | 1 | > 10^5 | > 100000 | – |
| Clc1ccc(Cn2cc(Cn3ccnc3)c3ccccc32)cc1 [XXXIX, 1-(p-chlorobenzyl)-3-(imidazol-1-ylmethyl)indole] | 86 | 210 | 18000 | – |
| c1ccc2c(Cn3ccnc3)c(C34CC5CC(CC(C5)C3)C4)[nH]c2c1 [XIV] | 2.5 | 400 | 1000 | – |
| Cc1ccc(C(=O)n2cc(Cn3ccnc3)c3ccccc32)cc1 [XLII, 3-(imidazol-1-ylmethyl)-1-(p-methylbenzoyl)indole] | 0.41 | 49,000 | 20000 | – |
| Cc1ccccc1-c1[nH]c2ccccc2c1Cn1ccnc1 [XV, 3-(imidazol-1-ylmethyl)-2-(o-tolyl)indole] | 0.014 | 10^6 | 14000 | – |
| Oc1ccc2[nH]cc(Cn3ccnc3)c2c1 [Example XLVII, 5-hydroxy-3-(imidazol-1-ylmethyl)-indole] | 2.3 | 3,500 | 8000 | – |
| COc1ccc(-c2[nH]c3ccccc3c2Cn2ccnc2)cc1 [XIX, 2-(p-anisyl)-3-(imidazol-1-ylmethyl)indole] | 120 | – | – | – |
| FC(F)(F)c1ccc2c(Cn3ccnc3)c[nH]c2c1 [XXIV, 3-(imidazol-1-ylmethyl)-6-trifluoromethylindole] | 200 | 500 | 100000 | – |
| Clc1ccc(-c2[nH]c3ccccc3c2Cn2ccnc2)cc1 [XXI] | 110 | > 900 | > 100000 | – |
| O=C(c1cccc(C(F)(F)F)c1)n1cc(Cn2ccnc2)c2ccccc21 [Example XLV, 3-(imidazol-1-ylmethyl)-1-(m-trifluoromethylbenzoyl)indole] | 100 | – | – | – |
| c1ccc(COc2ccc3[nH]cc(Cn4ccnc4)c3c2)cc1 [Example XXV, 5-benzyloxy-3-(imidazol-1-ylmethyl)indole] | 260 | 140 | 37000 | – |
| c1ccc2c(c1)c(Cn1ccnc1)cn2CC1CC1 [XXXVI, 1-cyclopropylmethyl-3-(imidazol-1-ylmethyl)indole] | 11 | 9,000 | 100000 | – |
| Cc1ccc2[nH]cc(Cn3ccnc3)c2c1 [XI, 3-(imidazol-1-ylmethyl)-5-methylindole] | 58 | 600 | 35000 | – |
| CN(C)c1ccc2[nH]cc(Cn3ccnc3)c2c1 [XXIII, 5-dimethylamino-3-(imidazol-1-ylmethyl)indole] | 64 | > 1,500 | > 100000 | – |
| COc1ccccc1-c1[nH]c2ccccc2c1Cn1ccnc1 [XVIII, 2-(o-anisyl)-3-(imidazol-1-ylmethyl)indole] | 0.38 | 3,700 | 1400 | – |

More lines, now with the values ahead:

| IC50 (thromboxane synthetase) [nM] | Ratio of (3) to (1) (thromboxane synthetase) | IC50 (prostacyclin synthetase) [nM] | IC50 (cyclo-oxygenase) [nM] | Structure (SMILES) |
| --- | --- | --- | --- | --- |
| 30 | 3,300 | > 100000 | – | CC(c1c[nH]c2ccccc12)n1ccnc1 (stereo not drawn) [Example VII, 3-[α-(imidazol-1-yl)ethyl]indole] |
| 26 | > 3,800 | > 100000 | – | CN(C)CCn1cc(Cn2ccnc2)c2ccccc21 [XXXVIII, 1-(β-dimethylaminoethyl)-3-(imidazol-1-ylmethyl)indole] |
| 4.3 | – | – | – | O=C(C1CC1)n1cc(Cn2ccnc2)c2ccccc21 [XLI, 1-cyclopropylcarbonyl-3-(imidazol-1-yl-methyl)indole] |
| 1.2 | 57,000 | 68000 | – | CC(=O)n1cc(Cn2ccnc2)c2ccccc21 [Example XLVI, 1-acetyl-3-(imidazol-1-ylmethyl)indole] |
| 33 | – | – | – | CC(c1cn(C)c2ccccc12)n1ccnc1 (stereo not drawn) [XXVIII, 3-[α-(imidazol-1-yl)ethyl]-1-methylindole] |
| 3.3 | 300 | 1000 | – | C=C(C)Cn1cc(Cn2ccnc2)c2ccccc21 [XXXV, 3-(imidazol-1-yl-methyl)-1-methallylindole] |
| 1.4 | > 70,000 | > 100000 | – | CCn1cc(Cn2ccnc2)c2ccccc21 [XXIX, 1-ethyl-3-(imidazol-1-ylmethyl)indole] |
| 36 | – | – | – | C=CCn1cc(C(C)n2ccnc2)c2ccccc21 (stereo not drawn) [XXXII, 1-allyl-3-[α-(imidazol-1-yl)ethyl]indole] |
| 45 | > 2,200 | > 100000 | – | COCCn1cc(Cn2ccnc2)c2ccccc21 [XXXVII, 3-(imidazol-1-ylmethyl)-1-(β-methoxyethyl)indole] |
| 4 | > 2,500 | > 100000 | – | CCCn1cc(Cn2ccnc2)c2ccccc21 [XXX, 3-(imidazol-1-ylmethyl)-1-(n-propyl)indole] |
| 0.058 | > 1.7×10^6 | > 100000 | – | C=CCn1cc(Cn2ccnc2)c2ccccc21 [XXXI, 1-allyl-3-(imidazol-1-ylmethyl)indole] |
